Starred links: 1 amine or outer side, 2 acyl side, 3 side chain; linkers in the order of their positions; H or OH if unused. Non-standard residues stand in square brackets, D forms with d. Residues, ends and D or L forms follow the SMILES beside them. Groups on a side chain read outwards from the residue. *: point of attachment. C18 diacid = O=C(O)CCCCCCCCCCCCCCCCC(=O)*; γGlu = O=C(O)[C@H](CCC(=O)[*:2])N[*:1]; AEEA = NCCOCCOCC(=O)O; Aib = CC(C)(N)C(=O)O
Each compound was assayed against T1, human CRF2α receptor (Homo sapiens, UniProt Q13324) (assay: cAMP agonism at human CRF2 α receptor in TeloHEAC cells (Example 7)). Settings: cAMP HTRF, TeloHEAC cells stably expressing human CRF2 α, 0% HSA; read-out: EC50 [nM], 0% HSA.
T1 construct: expressed in transfected cells; host or cells: TeloHEAC
T1 sequence (Q13324 1-411): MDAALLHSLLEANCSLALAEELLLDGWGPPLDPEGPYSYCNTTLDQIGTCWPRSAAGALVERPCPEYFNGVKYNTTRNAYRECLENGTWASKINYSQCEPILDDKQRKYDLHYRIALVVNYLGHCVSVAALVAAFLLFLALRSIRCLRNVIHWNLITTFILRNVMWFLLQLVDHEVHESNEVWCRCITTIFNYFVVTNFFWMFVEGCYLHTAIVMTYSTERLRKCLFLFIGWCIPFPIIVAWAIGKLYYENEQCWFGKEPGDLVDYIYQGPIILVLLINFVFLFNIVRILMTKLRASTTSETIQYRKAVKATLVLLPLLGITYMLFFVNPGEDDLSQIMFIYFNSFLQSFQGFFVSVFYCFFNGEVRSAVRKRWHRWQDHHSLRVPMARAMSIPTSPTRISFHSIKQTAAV
Format: cell-based
In short: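 Percent activation was referenced to 1000 nM UCN2 (100%), and EC50 values taken as concentrations giving half of maximal response. The read-out was a homogeneous time-resolved fluorescence cAMP kit, fluorescence ratio 665/620 nm. Thawed cells (2000/well) saw compound for 30 min at RT in buffer with 2 mM IBMX and 0%/0.1% HSA.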

Row | EC50 | SMILES
1 | 3.15 nM | CC[C@H](C)[C@H](N)C(=O)N[C@H](C(=O)N[C@@H](CC(C)C)C(=O)N[C@@H](CO)C(=O)N[C@@H](CC(C)C)C(=O)N[C@@H](CC(=O)O)C(=O)N[C@H](C(=O)N1CCC[C@H]1C(=O)N[C@H](C(=O)N[C@@H](CCCCN)C(=O)N[C@@H](CC(C)C)C(=O)N[C@@H](CCCCNC(=O)COCCOCCNC(=O)COCCOCCNC(=O)CC[C@H](NC(=O)CCCCCCCCCCCCCCCCC(=O)O)C(=O)O)C(=O)N[C@@H](CCCCN)C(=O)NC(C)(C)C(=O)N[C@@H](CC(C)C)C(=O)N[C@@H](CC(C)C)C(=O)N[C@@H](CCC(=O)O)C(=O)N[C@@H](CCC(N)=O)C(=O)N[C@@H](CCC(=O)O)C(=O)N[C@@H](CCCNC(=N)N)C(=O)N[C@@H](CCC(N)=O)C(=O)N[C@@H](CCCCN)C(=O)N[C@@H](CCCCN)C(=O)N[C@@H](CCC(N)=O)C(=O)N[C@@H](CCCNC(=N)N)C(=O)N[C@@H](CCC(=O)O)C(=O)N[C@@H](CCC(N)=O)C(=O)N[C@@H](C)C(=O)N[C@@H](CCC(=O)O)C(=O)N[C@H](C(=O)N[C@@H](CC(N)=O)C(=O)NC(C)(C)C(=O)N[C@@H](CCC(N)=O)C(=O)N[C@H](C(=O)N[C@@H](CC(C)C)C(=O)N[C@@H](C)C(=O)N[C@@H](CCC(N)=O)C(=O)N[C@H](C(N)=O)C(C)C)[C@@H](C)CC)[C@@H](C)O)[C@@H](C)CC)C(C)C)C(C)C [compound 71] (H-IVLSLDVPIKLK([AEEA-AEEA-γGlu-C18 diacid])K[Aib]LLEQERQKKQREQAETN[Aib]QILAQV-NH2; N-terminus assumed)
2 | 2.6 nM | CC[C@H](C)[C@H](N)C(=O)N[C@H](C(=O)N[C@@H](CC(C)C)C(=O)N[C@@H](CO)C(=O)N[C@@H](CC(C)C)C(=O)N[C@@H](CC(=O)O)C(=O)N[C@H](C(=O)N1CCC[C@H]1C(=O)N[C@H](C(=O)N[C@@H](CCCCN)C(=O)N[C@@H](CC(C)C)C(=O)N[C@@H](CCCCNC(=O)COCCOCCNC(=O)COCCOCCNC(=O)CC[C@H](NC(=O)CCCCCCCCCCCCCCCCC(=O)O)C(=O)O)C(=O)N[C@@H](CCC(N)=O)C(=O)N[C@H](C(=O)N[C@@H](CC(C)C)C(=O)N[C@@H](CC(C)C)C(=O)N[C@@H](CCC(=O)O)C(=O)N[C@@H](CCC(N)=O)C(=O)N[C@@H](CCC(=O)O)C(=O)N[C@@H](CCCNC(=N)N)C(=O)N[C@@H](CCC(N)=O)C(=O)N[C@@H](CCCCN)C(=O)N[C@@H](CCCCN)C(=O)N[C@@H](CCC(N)=O)C(=O)N[C@@H](CCCNC(=N)N)C(=O)N[C@@H](CCC(N)=O)C(=O)N[C@@H](CCCCN)C(=O)N[C@@H](C)C(=O)N[C@@H](CCC(=O)O)C(=O)N[C@H](C(=O)N[C@@H](CC(N)=O)C(=O)NC(C)(C)C(=O)N[C@@H](CCC(N)=O)C(=O)N[C@H](C(=O)N[C@@H](CC(C)C)C(=O)N[C@@H](C)C(=O)N[C@@H](CCC(N)=O)C(=O)N[C@H](C(N)=O)C(C)C)[C@@H](C)CC)[C@@H](C)O)[C@@H](C)CC)[C@@H](C)CC)C(C)C)C(C)C [compound 73] (H-IVLSLDVPIKLK([AEEA-AEEA-γGlu-C18 diacid])QILLEQERQKKQRQKAETN[Aib]QILAQV-NH2)
3 | 2.12 nM | CC[C@H](C)[C@H](N)C(=O)N[C@H](C(=O)N[C@@H](CC(C)C)C(=O)N[C@@H](CO)C(=O)N[C@@H](CC(C)C)C(=O)N[C@@H](CC(=O)O)C(=O)N[C@H](C(=O)N1CCC[C@H]1C(=O)N[C@H](C(=O)N[C@@H](CCCCN)C(=O)N[C@@H](CC(C)C)C(=O)N[C@@H](CCCCNC(=O)COCCOCCNC(=O)COCCOCCNC(=O)CC[C@H](NC(=O)CCCCCCCCCCCCCCCCC(=O)O)C(=O)O)C(=O)N[C@@H](CCC(N)=O)C(=O)N[C@H](C(=O)N[C@@H](CC(C)C)C(=O)N[C@@H](CC(C)C)C(=O)N[C@@H](CCC(=O)O)C(=O)N[C@@H](CCC(N)=O)C(=O)N[C@@H](CCC(=O)O)C(=O)N[C@@H](CCCNC(=N)N)C(=O)N[C@@H](CCC(N)=O)C(=O)N[C@@H](CCCCN)C(=O)N[C@@H](CCCCN)C(=O)N[C@@H](CCC(N)=O)C(=O)N[C@@H](CCCNC(=N)N)C(=O)N[C@@H](CCC(=O)O)C(=O)N[C@@H](CCC(N)=O)C(=O)N[C@@H](C)C(=O)N[C@@H](CCC(=O)O)C(=O)N[C@H](C(=O)N[C@@H](CC(N)=O)C(=O)NC(C)(C)C(=O)N[C@@H](CCC(N)=O)C(=O)N[C@H](C(=O)N[C@@H](CC(C)C)C(=O)N[C@@H](CCC(=O)O)C(=O)N[C@@H](CCCNC(=N)N)C(=O)N[C@H](C(N)=O)C(C)C)[C@@H](C)CC)[C@@H](C)O)[C@@H](C)CC)[C@@H](C)CC)C(C)C)C(C)C [compound 74] (H-IVLSLDVPIKLK([AEEA-AEEA-γGlu-C18 diacid])QILLEQERQKKQREQAETN[Aib]QILERV-NH2)
4 | 13.4 nM | CC[C@H](C)[C@H](N)C(=O)N[C@H](C(=O)N[C@@H](CC(C)C)C(=O)N[C@@H](CO)C(=O)N[C@@H](CC(C)C)C(=O)N[C@@H](CC(=O)O)C(=O)N[C@H](C(=O)N1CCC[C@H]1C(=O)N[C@H](C(=O)NCC(=O)N[C@@H](CC(C)C)C(=O)N[C@@H](CCCCNC(=O)COCCOCCNC(=O)COCCOCCNC(=O)CC[C@H](NC(=O)CCCCCCCCCCCCCCCCC(=O)O)C(=O)O)C(=O)N[C@@H](CCC(N)=O)C(=O)N[C@H](C(=O)N[C@@H](CC(C)C)C(=O)N[C@@H](CC(C)C)C(=O)N[C@@H](CCC(=O)O)C(=O)N[C@@H](CCC(N)=O)C(=O)N[C@@H](CCC(=O)O)C(=O)N[C@@H](CCCNC(=N)N)C(=O)N[C@@H](CCC(N)=O)C(=O)N[C@@H](CCCCN)C(=O)N[C@@H](CCCCN)C(=O)N[C@@H](CCC(N)=O)C(=O)N[C@@H](CCCNC(=N)N)C(=O)N[C@@H](CCC(N)=O)C(=O)N[C@@H](CCC(N)=O)C(=O)N[C@@H](C)C(=O)N[C@@H](CCC(=O)O)C(=O)N[C@H](C(=O)N[C@@H](CC(N)=O)C(=O)NC(C)(C)C(=O)N[C@@H](CCC(N)=O)C(=O)N[C@H](C(=O)N[C@@H](CC(C)C)C(=O)N[C@@H](C)C(=O)N[C@@H](CCC(N)=O)C(=O)N[C@H](C(N)=O)C(C)C)[C@@H](C)CC)[C@@H](C)O)[C@@H](C)CC)[C@@H](C)CC)C(C)C)C(C)C [compound 76] (H-IVLSLDVPIGLK([AEEA-AEEA-γGlu-C18 diacid])QILLEQERQKKQRQQAETN[Aib]QILAQV-NH2)
5 | 10.6 nM | CC[C@H](C)[C@H](N)C(=O)N[C@H](C(=O)N[C@@H](CC(C)C)C(=O)N[C@@H](CO)C(=O)N[C@@H](CC(C)C)C(=O)N[C@@H](CC(=O)O)C(=O)N[C@H](C(=O)N1CCC[C@H]1C(=O)N[C@H](C(=O)N[C@@H](CCCCN)C(=O)N[C@@H](CC(C)C)C(=O)N[C@@H](CCCCNC(=O)COCCOCCNC(=O)COCCOCCNC(=O)CC[C@H](NC(=O)CCCCCCCCCCCCCCCCC(=O)O)C(=O)O)C(=O)N[C@@H](CCC(N)=O)C(=O)N[C@H](C(=O)N[C@@H](CC(C)C)C(=O)N[C@@H](CC(C)C)C(=O)N[C@@H](CCC(=O)O)C(=O)N[C@@H](CCC(N)=O)C(=O)N[C@@H](CCC(=O)O)C(=O)N[C@@H](CCCNC(=N)N)C(=O)N[C@@H](CCC(N)=O)C(=O)N[C@@H](CCCCN)C(=O)N[C@@H](CCCCN)C(=O)N[C@@H](CCC(N)=O)C(=O)N[C@@H](CCCNC(=N)N)C(=O)N[C@@H](CCC(=O)O)C(=O)N[C@@H](CCC(N)=O)C(=O)N[C@@H](C)C(=O)N[C@@H](CCC(=O)O)C(=O)N[C@H](C(=O)N[C@@H](CC(N)=O)C(=O)NC(C)(C)C(=O)N[C@@H](CCC(N)=O)C(=O)N[C@H](C(=O)N[C@@H](CC(C)C)C(=O)N[C@@H](C)C(=O)N[C@@H](CCC(N)=O)C(=O)N[C@H](C(N)=O)C(C)C)[C@@H](C)CC)[C@@H](C)O)[C@@H](C)CC)[C@@H](C)O)C(C)C)C(C)C [compound 78] (H-IVLSLDVPTKLK([AEEA-AEEA-γGlu-C18 diacid])QILLEQERQKKQREQAETN[Aib]QILAQV-NH2)
6 | 10.1 nM | CC[C@H](C)[C@H](N)C(=O)N[C@H](C(=O)N[C@@H](CC(C)C)C(=O)N[C@@H](CO)C(=O)N[C@@H](CC(C)C)C(=O)N[C@@H](CC(=O)O)C(=O)N[C@H](C(=O)N1CCC[C@H]1C(=O)N[C@H](C(=O)N[C@@H](CCCCN)C(=O)N[C@@H](CC(C)C)C(=O)N[C@@H](CCCCNC(=O)COCCOCCNC(=O)COCCOCCNC(=O)CC[C@H](NC(=O)CCCCCCCCCCCCCCCCC(=O)O)C(=O)O)C(=O)N[C@@H](CCC(N)=O)C(=O)N[C@H](C(=O)N[C@@H](CC(C)C)C(=O)N[C@@H](CC(C)C)C(=O)N[C@@H](CCCCN)C(=O)N[C@@H](CCC(N)=O)C(=O)N[C@@H](CCC(=O)O)C(=O)N[C@@H](CCCNC(=N)N)C(=O)N[C@@H](CCC(N)=O)C(=O)N[C@@H](CCCCN)C(=O)N[C@@H](CCCCN)C(=O)NC(C)(C)C(=O)N[C@@H](CCCNC(=N)N)C(=O)N[C@@H](CCC(=O)O)C(=O)N[C@@H](CCC(N)=O)C(=O)N[C@@H](C)C(=O)N[C@@H](CCC(=O)O)C(=O)N[C@H](C(=O)N[C@@H](CC(N)=O)C(=O)N[C@H](C(=O)N[C@@H](CCCNC(=N)N)C(=O)N[C@H](C(=O)N[C@@H](CC(C)C)C(=O)N[C@@H](CCC(=O)O)C(=O)N[C@@H](CCCNC(=N)N)C(=O)N[C@H](C(N)=O)C(C)C)[C@@H](C)CC)C(C)C)[C@@H](C)O)[C@@H](C)CC)[C@@H](C)O)C(C)C)C(C)C [compound 82] (H-IVLSLDVPTKLK([AEEA-AEEA-γGlu-C18 diacid])QILLKQERQKK[Aib]REQAETNVRILERV-NH2)
